Data: publication PMC5114336, “Enhanced anti-tumour activity of the combination of the novel MEK inhibitor WX-554 and the novel PI3K inhibitor WX-037” (Cancer Chemotherapy and Pharmacology, 2016)
Values joined by “and” are separate entries in the source; they are usually repeats but may differ in a detail not shown here. Equal entries are not always repeated. “Also recorded” adds a separate entry of the source. Where two headings read alike, the source gives them in different places.

Tests used:
HCT116 cells [1] = conditions: read-out: GI50 (potency), cited from earlier work
HT29 cells [2] = conditions: read-out: GI50 (potency), cited from earlier work
HCT116 cells [3] = assay: Sulforhodamine B (SRB) growth inhibition assay with median effect analysis, HCT116; assay type: cell-based, human; conditions: HCT116, single agent
Method: (§1) Growth was then measured using the Sulforhodamine B (SRB) method and analysed as described previously. The GI50 concentration was calculated based on a standard point to point curve with 1000 segments using GraphPad Prism software (California, USA). The data were analysed by median effect analysis using CalcuSyn software (Biosoft, Cambridgeshire, UK), which calculates the combination index of multiple drugs by an algebraic estimation algorithm.

HT29 cells [4] = assay: Sulforhodamine B (SRB) growth inhibition assay with median effect analysis, HT29; assay type: cell-based, human
Method: as §1

[5] = system: phosphorylation of ERK1/2, AKT, S6 and 4EBP1 in HCT116 cells; assay: Western blotting of PI3K/AKT and MAPK signal transduction, HCT116; assay type: cell-based, human; conditions: HCT116, 24 h, 1x or 10x GI50, Western blot
Method: (§2) Western blots were prepared, probed with phospho-4EBP1 (Thr37/46) (#2855), phospho-p44/42 MAPK (Thr202/Tyr204) (#4370), phospho-AKT (Ser473) (#4060) or phospho-S6 ribosomal protein (Ser235/236) (#4858) monoclonal antibodies obtained from Cell Signalling Technology (New England BioLabs (UK) Ltd, Hertfordshire, UK) and developed as described previously. Blots were then stripped (100 mM 2-mercaptoethanol, 2% (w/v) SDS and 62.5 mM Tris pH6.8 at 55 °C for 30 min) and re-probed with the respective total monoclonal antibody (4EBP1 (53H11) (#9644), p44/42 MAPK (ERK1/2) (#4695), AKT (pan) (C67E7) (#4691) or S6 ribosomal protein (5g10) (#2217)) obtained from Cell Signalling Technology (New England BioLabs (UK) Ltd, Hertfordshire, UK) and developed as described above.

[6] = system: phosphorylation of ERK1/2, AKT, S6 and 4EBP1 in HT29 cells; assay: Western blotting of PI3K/AKT and MAPK signal transduction, HT29; assay type: cell-based, human; conditions: HT29, 24 h, 1x or 10x GI50, Western blot
Method: as §2

[7] = Pharmacokinetic study, plasma and tumour concentrations, HCT116 xenograft-bearing mice; assay type: in vivo
Method: (§3) Animal studies were all carried out using female athymic CD1 nude mice (Charles River, Kent, UK), implanted with HCT116 or HT29 xenografts (1 × 10^7 cells in 50 µl media injected subcutaneously into the right flank), maintained and handled in isolators under specific pathogen-free conditions.
(§4) Mice bearing HCT116 or HT29 human tumour xenografts were treated with 1 or 5 mg/kg WX-554, or 20 or 100 mg/kg WX-037, alone or in combination, and were bled by cardiac puncture under terminal anaesthesia at 6 or 24 h post-treatment (3 mice/time point). Blood was collected into heparinized tubes, and plasma was separated and stored at −20 °C until analysed. Tumours were removed, snap frozen in liquid nitrogen and stored at −80 °C prior to PK analyses. Samples were extracted with solid phase extraction (SPE) and analysed with high-performance liquid chromatography (HPLC) coupled with tandem mass spectrometry (MS/MS) by Wilex (Munich, Germany). The quantification limit for WX-554 was 1 ng/mL and within and between day variation was <15%. WinNonlin Software Version 4.0.1 (Pharsight Corporation, Peypin, France) was used for PK/PD modelling and non-compartmental analysis. Paired t tests were used to compare the different treatment groups, and differences with a p value ≤0.05 were considered statistically significant.

[8] = Pharmacokinetic study, plasma and tumour concentrations, HT29 xenograft-bearing mice; assay type: in vivo
Method: as §3, §4

[9] = system: HCT116 human tumour xenografts; assay: Anti-tumour activity in HCT116 xenograft-bearing mice; assay type: in vivo; conditions: 2 mg/kg WX-554 and/or 50 mg/kg WX-037 p.o. once daily for 14 days
Method: as §3
(§5) Mice bearing HCT116 human tumour xenografts were randomized into treatment groups and then treated by oral gavage with either the vehicle (10 ml/kg), 2 mg/kg WX-554, 50 mg/kg WX-037 or the combination of 2 mg/kg WX-554 and 50 mg/kg WX-037 once daily for 14 days. Tumour volume was monitored by calliper measurement using the equation a ^2 × b/2, where a is the smallest measurement and b the largest. Data are presented as median relative tumour volumes (RTV), where the tumour volume in each mouse on the initial day of treatment (day 0) is assigned an RTV value of 1. The time to RTV4 for each individual tumour was calculated based on a standard point to point curve with 1000 segments using GraphPad Prism software (CA, USA). Mann–Whitney U tests were used to compare the different groups, i.e., the control versus each treatment group, the single agents versus each other and each single agent versus their combination. Differences with a p value ≤0.05 were considered statistically significant.

[10] = Tolerability (body weight) in the HCT116 xenograft efficacy study; assay type: in vivo; conditions: HCT116 xenograft mice, 2 mg/kg WX-554 and/or 50 mg/kg WX-037 p.o. once daily for 14 days
Method: as §5
Based on the results of the PK study, the efficacy of 50 mg/kg of the PI3K inhibitor WX-037 and 2 mg/kg of the MEK inhibitor WX-554 given orally, as single agents and in combination, was assessed in HCT116 human tumour xenograft-bearing mice (Fig. 5). […] In this study, mice were treated daily for 14 days and tumour volumes were measured three times a week.

MEK1 = conditions: stated in Introduction, method and reference not given; read-out: half maximal inhibitory concentration (IC50), MEK1; cited from earlier work
MEK2 = conditions: stated in Introduction, method and reference not given; read-out: half maximal inhibitory concentration (IC50), MEK2; cited from earlier work
[11] = design: method as in earlier work; conditions: dose escalation study in healthy volunteers; cited from earlier work
[12] = design: method as in PMID 23587417, PMID 24434059; conditions: recent Phase I study; cited from earlier work
HT29 cells [13] = assay: Clonogenic cytotoxicity assay, HT29
Source text: (§6) HCT116 and HT29 human colorectal cancer cells were obtained from the ATCC (American Type Culture Collection).
(§7) After growth for 10–14 days, colonies were fixed in methanol–acetic acid 3:1 (v/v) and stained with crystal violet (0.4% w/v). Colonies consisting of more than 50 cells were counted on an automated colony counter (Oxford Optronix, Oxford, UK). Two-tailed paired t tests were used to compare the different groups. Differences with a p < 0.05 were considered statistically significant.

HCT116 cells [14] = assay: Clonogenic cytotoxicity assay, HCT116
Source text: as §6, §7

[15] = 1 mg/kg WX-554 + 20 mg/kg WX-037, single p.o. dose
[16] = 1 mg/kg WX-554 + 100 mg/kg WX-037, single p.o. dose
[17] = 1 mg/kg WX-554 alone, single p.o. dose
[18] = 5 mg/kg WX-554 + 20 mg/kg WX-037, single p.o. dose
[19] = 5 mg/kg WX-554 + 100 mg/kg WX-037, single p.o. dose
[20] = 5 mg/kg WX-554 alone, single p.o. dose

O=C(NOC[C@H](O)CO)c1ccc(F)c(F)c1Nc1ccc(I)cc1F [PD 0325901]
GI50 (HCT116 cells [1]; HCT116, using the same assay): 21 nM
GI50 (HT29 cells [2]; HT29, using the same assay): 6.5 nM

NCC1CN(C(=O)c2c(Nc3ccc(I)cc3F)sc3ncccc23)C1 [WX-554]
GI50 (HCT116 cells [3]; 72-h exposure, SRB, read-out: GI50 (half maximal growth inhibitory concentration)): 38 nM
in vitro GI50 value (HCT116 cells [3]; determined in Supplementary Figure 1): 0.018 µg/mL
fold difference in sensitivity, HT29 more sensitive than HCT116 (HT29 cells [4]; GI50 HCT116 versus GI50 HT29): 9 fold
GI50 (HT29 cells [4]; HT29, single agent, 72-h exposure, SRB, read-out: GI50 (half maximal growth inhibitory concentration)): 4.3 nM and 4 nM
in vitro GI50 value (HT29 cells [4]; HT29, single agent, determined in Supplementary Figure 1): 0.002 µg/mL
reduction of ERK1/2 phosphorylation [5]: reduced ERK1/2 phosphorylation at 1 and 10 times the GI50 concentration
reduction of ERK1/2 phosphorylation [6]: at 10 times the GI50 concentration in the HT29 cell line
WX-554 Concentration ± SD, Plasma, 6 hours [7, 15]: 17 ± 9 ng/mL
WX-554 Concentration ± SD, Plasma, 24 hours [7, 15]: 6 ± 6 ng/mL
WX-554 Concentration ± SD, Tumour, 6 hours [7, 15]: 184 ± 62 ng/mL
WX-554 Concentration ± SD, Tumour, 24 hours [7, 15]: 141 ± 58 ng/mL
WX-554 Concentration ± SD, Plasma, 6 hours [7, 16]: 20 ± 10 ng/mL
WX-554 Concentration ± SD, Plasma, 24 hours [7, 16]: 10 ± 7 ng/mL
WX-554 Concentration ± SD, Tumour, 6 hours [7, 16]: 319 ± 139 ng/mL
WX-554 Concentration ± SD, Tumour, 24 hours [7, 16]: 464 ± 263 ng/mL
WX-554 Concentration ± SD, Plasma, 6 hours [7, 17]: 19 ± 5 ng/mL
WX-554 Concentration ± SD, Plasma, 24 hours [7, 17]: 2 ± 1 ng/mL
WX-554 Concentration ± SD, Tumour, 6 hours [7, 17]: 478 ± 97 ng/mL
WX-554 Concentration ± SD, Tumour, 24 hours [7, 17]: 309 ± 30 ng/mL
WX-554 Concentration ± SD, Plasma, 6 hours [7, 18]: 74 ± 27 ng/mL
WX-554 Concentration ± SD, Plasma, 24 hours [7, 18]: 28 ± 7 ng/mL
WX-554 Concentration ± SD, Tumour, 6 hours [7, 18]: 673 ± 453 ng/mL
WX-554 Concentration ± SD, Tumour, 24 hours [7, 18]: 1240 ± 282 ng/mL
WX-554 Concentration ± SD, Plasma, 6 hours [7, 19]: 98 ± 18 ng/mL
WX-554 Concentration ± SD, Plasma, 24 hours [7, 19]: 68 ± 19 ng/mL
WX-554 Concentration ± SD, Tumour, 6 hours [7, 19]: 804 ± 353 ng/mL
WX-554 Concentration ± SD, Tumour, 24 hours [7, 19]: 1583 ± 369 ng/mL
WX-554 Concentration ± SD, Plasma, 6 hours [7, 20]: 130 ± 37 ng/mL
WX-554 Concentration ± SD, Plasma, 24 hours [7, 20]: 11 ± 2 ng/mL
WX-554 Concentration ± SD, Tumour, 6 hours [7, 20]: 1724 ± 442 ng/mL
WX-554 Concentration ± SD, Tumour, 24 hours [7, 20]: 360 ± 223 ng/mL
WX-554 Concentration ± SD, Plasma, 6 hours [8, 15]: 101 ± 39 ng/mL
WX-554 Concentration ± SD, Plasma, 24 hours [8, 15]: 5 ± 3 ng/mL
WX-554 Concentration ± SD, Tumour, 6 hours [8, 15]: 1180 ± 597 ng/mL
WX-554 Concentration ± SD, Tumour, 24 hours [8, 15]: 447 ± 80 ng/mL
WX-554 Concentration ± SD, Plasma, 6 hours [8, 16]: 19 ± 14 ng/mL
WX-554 Concentration ± SD, Plasma, 24 hours [8, 16]: 13 ± 7 ng/mL
WX-554 Concentration ± SD, Tumour, 6 hours [8, 16]: 159 ± 102 ng/mL
WX-554 Concentration ± SD, Tumour, 24 hours [8, 16]: 407 ± 66 ng/mL
WX-554 Concentration ± SD, Plasma, 6 hours [8, 17]: 21 ± 1 ng/mL
WX-554 Concentration ± SD, Plasma, 24 hours [8, 17]: 3 ± 1 ng/mL
WX-554 Concentration ± SD, Tumour, 6 hours [8, 17]: 510 ± 40 ng/mL
WX-554 Concentration ± SD, Tumour, 24 hours [8, 17]: 419 ± 134 ng/mL
WX-554 Concentration ± SD, Plasma, 6 hours [8, 18]: 81 ± 26 ng/mL
WX-554 Concentration ± SD, Plasma, 24 hours [8, 18]: 52 ± 58 ng/mL
WX-554 Concentration ± SD, Tumour, 6 hours [8, 18]: 1143 ± 416 ng/mL
WX-554 Concentration ± SD, Tumour, 24 hours [8, 18]: 2493 ± 979 ng/mL
WX-554 Concentration ± SD, Plasma, 6 hours [8, 19]: 47 ± 33 ng/mL
WX-554 Concentration ± SD, Plasma, 24 hours [8, 19]: 49 ± 10 ng/mL
WX-554 Concentration ± SD, Tumour, 6 hours [8, 19]: 446 ± 239 ng/mL
WX-554 Concentration ± SD, Tumour, 24 hours [8, 19]: 2423 ± 584 ng/mL
WX-554 Concentration ± SD, Plasma, 6 hours [8, 20]: 118 ± 25 ng/mL
WX-554 Concentration ± SD, Plasma, 24 hours [8, 20]: 13 ± 3 ng/mL
WX-554 Concentration ± SD, Tumour, 6 hours [8, 20]: 2748 ± 378 ng/mL
WX-554 Concentration ± SD, Tumour, 24 hours [8, 20]: 1916 ± 207 ng/mL
tumour growth compared to vehicle-treated control tumours [9]: caused tumour growth delay; also recorded: induced tumour growth delay
tolerability / toxicity [10]: non-toxic
IC50 (MEK1): 4.7 nM
IC50 (MEK2): 11 nM
GI50 (HCT116 cells [1]; HCT116, unpublished Wilex studies): 29 nM
GI50 (HT29 cells [2]; HT29, unpublished Wilex studies): 7.2 nM
safety and tolerability [11]: safe and tolerable
bioavailability [12]: very good bioavailability
LC50 fold higher than the corresponding GI50 (HT29 cells [13]; HT29): ~372 fold
cell kill (cytotoxicity, cell death) (HT29 cells [13]; HT29, single agent 10 µM, 72 h, clonogenic assay): 75%
CC50 (HT29 cells [13]; read-out: mean lethal concentration (LC50), HT29, 72-h exposure, clonogenic assay): 1600 nM
LC50 fold higher than the corresponding GI50 (HCT116 cells [14]; HCT116): approximately 16 fold
cell kill (cytotoxicity, cell death) (HCT116 cells [14]; HCT116, single agent 10 µM, 72 h, clonogenic assay): 67%
CC50 (HCT116 cells [14]; read-out: mean lethal concentration (LC50), HCT116, 72-h exposure, clonogenic assay): 600 nM

CS(=O)(=O)N1CCN(Cc2cc3nc(-c4cccc5[nH]ncc45)nc(N4CCOCC4)c3s2)CC1 [pictilisib, 2-(1H-Indazol-4-yl)-6-(4-methanesulfonyl-piperazin-1-ylmethyl)-4-morpholin-4-yl-thieno[3,2-d]pyrimidine]
GI50 (HCT116 cells [1]; HCT116, using the same assay): 1080 nM
GI50 (HT29 cells [2]; HT29, using the same assay): 157 nM
